Some test systems named below: A498 renal; A549 NSCLC; CAKI-1 renal; NCI-H522 lung; OVCAR-3 ovarian; OVCAR-4 ovarian; SNB-75 CNS; UACC-257 melanoma.
What all share (assay): NCI anticancer screen, dose series, 48 h

The values that follow come from PubChem BioAssay (NCI).

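Test compounds were applied to cells in 96-well plates for 48 hours at 5 doses. GI50 marks 50% less growth. TGI is the concentration that stops growth completely.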 Bounds are passed on as bounds.

For the compound `O=C1C(=O)N(c2ccc(Cl)c(Cl)c2)C(=O)C(=O)C1c1nc2ccccc2s1`, the TGI with A498 renal, in the test on A549 NSCLC, in the test with CAKI-1 renal, in the test with NCI-H522 lung, with OVCAR-3 ovarian and in the test on OVCAR-4 ovarian was greater than 100 µM in each case. Further, the TGI in the test with SNB-75 CNS and with UACC-257 melanoma was greater than 100 µM in each case.
With `CSCC1CC(c2ccc(Cl)cc2)=NO1` (stereo unspecified), the TGI with A498 renal, in the test on A549 NSCLC, in the test with CAKI-1 renal, in the test with NCI-H522 lung, with OVCAR-3 ovarian and in the test on OVCAR-4 ovarian was greater than 100 µM in each case. Also, the TGI in the test with SNB-75 CNS and in the test on UACC-257 melanoma was greater than 100 µM in each case.
For `O=c1cc(-c2ccccc2)[nH]c2cc(O)ccc12`, the TGI in the test on A498 renal was greater than 100 µM; with A549 NSCLC, 81.8 µM; in the test with CAKI-1 renal, 71.6 µM; in the test with NCI-H522 lung, 76.2 µM; in the test with OVCAR-4 ovarian, 58.1 µM; with SNB-75 CNS it was 72.5 µM. In addition, the TGI with UACC-257 melanoma was 48.2 µM.
Take `COc1ccc(N=c2ssc3c(=S)ssc23)cc1`: the TGI in the test on A549 NSCLC is greater than 100 µM; with CAKI-1 renal it was greater than 100 µM; in the test with NCI-H522 lung, 35.5 µM; in the test with OVCAR-3 ovarian, 61.7 µM; in the test with OVCAR-4 ovarian, greater than 100 µM; with SNB-75 CNS, 75.6 µM.
As for `Cc1ccc(-c2cc(-c3ccc(C)cc3)nc(NCCNc3ccnc4cc(Cl)ccc34)n2)cc1`, the GI50 in the test with A498 renal was 1.89 µM; in the test with A549 NSCLC, 1.74 µM; with CAKI-1 renal it was 1.43 µM; in the test with NCI-H522 lung, 1.75 µM; in the test on OVCAR-3 ovarian, 1.66 µM; in the test with OVCAR-4 ovarian it was 1.63 µM. Also, the GI50 is 1.48 µM in the test on SNB-75 CNS and 1.98 µM with UACC-257 melanoma. In addition, the TGI in the test with A498 renal came to 3.46 µM; in the test on A549 NSCLC it was 3.53 µM; in the test with CAKI-1 renal, 2.82 µM; with NCI-H522 lung it was 3.51 µM; in the test with OVCAR-3 ovarian, 3.15 µM; with OVCAR-4 ovarian, 3.24 µM. Further, the TGI worked out at 3.02 µM with SNB-75 CNS and 4.07 µM with UACC-257 melanoma.
As for `COc1ccc(C2=C(Cl)c3cc(OC)c(OC)cc3C2Cl)cc1OC` (stereo unspecified), the TGI came out at 42 µM with A549 NSCLC; 35.2 µM with CAKI-1 renal; 28.4 µM with OVCAR-3 ovarian; 47.5 µM with OVCAR-4 ovarian; 33.4 µM in the test with SNB-75 CNS; 32 µM with UACC-257 melanoma.
As for `CCOC(=O)C(=O)Nc1c(CC)cccc1C(C)C`, the TGI in the test on A498 renal, with A549 NSCLC, with CAKI-1 renal, in the test with OVCAR-3 ovarian, with OVCAR-4 ovarian and in the test with SNB-75 CNS was greater than 100 µM each time. In the test on UACC-257 melanoma, this compound had a TGI greater than 100 µM.
On to `Nn1c(-c2ccccc2Cl)nc2ccccc2c1=O`, for which the TGI in the test with A498 renal, with A549 NSCLC, in the test on CAKI-1 renal, in the test on NCI-H522 lung, with OVCAR-3 ovarian and in the test on OVCAR-4 ovarian was greater than 100 µM in each case. Further, the TGI in the test with SNB-75 CNS and in the test on UACC-257 melanoma was greater than 100 µM each time.
Turning to `CS(=O)(=O)Oc1cccc(/C=N/N=C(\N)NO)c1`, the TGI with A498 renal, in the test with A549 NSCLC, in the test with CAKI-1 renal, in the test on NCI-H522 lung, with OVCAR-3 ovarian and in the test on OVCAR-4 ovarian was greater than 100 µM each time. In addition, the TGI in the test with SNB-75 CNS and with UACC-257 melanoma was greater than 100 µM throughout.
On to `CCOC(=O)C1=C(NC)OC/C1=N\NC(=O)c1ccccc1O`, for which the TGI in the test on A498 renal is greater than 100 µM; in the test with A549 NSCLC it was greater than 100 µM; with CAKI-1 renal, greater than 100 µM; with NCI-H522 lung, 90.5 µM; in the test with OVCAR-3 ovarian, 98.5 µM; in the test with OVCAR-4 ovarian, 83.5 µM. Besides, the TGI in the test with SNB-75 CNS is greater than 100 µM; with UACC-257 melanoma, 17.3 µM.
`N#CC(C(=O)CCC(=O)Nc1cccc(Cl)c1)c1ccccc1` (stereo unspecified): the TGI in the test on A498 renal, with A549 NSCLC, in the test on NCI-H522 lung, in the test with OVCAR-3 ovarian, with OVCAR-4 ovarian and in the test with SNB-75 CNS was greater than 100 µM throughout. The compound further had a TGI in the test with UACC-257 melanoma greater than 100 µM.
With `CCC1CN2CCc3cc(OC)c(OC)cc3C2CC1CC1c2cc(OC)c(OC)cc2CCN1C(=O)C1CCCN1C(=O)OCc1ccccc1` (stereo unspecified), the TGI stood at 29.9 µM with A498 renal; 39.2 µM with A549 NSCLC; 47.3 µM in the test on CAKI-1 renal; 30.7 µM with OVCAR-3 ovarian; 27.4 µM in the test on OVCAR-4 ovarian; 28.3 µM in the test with SNB-75 CNS. In the test with UACC-257 melanoma, this compound yielded a TGI of 30.8 µM.
On to `COC1CC(OS(=O)(=O)c2ccc(C)cc2)C(OC(=O)c2ccccc2)C(C)O1` (stereo unspecified), for which the GI50 was greater than 100 µM with A498 renal; greater than 100 µM in the test with A549 NSCLC; greater than 100 µM in the test with CAKI-1 renal; greater than 100 µM in the test on NCI-H522 lung; greater than 100 µM with OVCAR-4 ovarian; greater than 10 µM in the test on SNB-75 CNS. Also, the TGI in the test with A498 renal was greater than 100 µM; in the test on A549 NSCLC, greater than 100 µM; in the test with CAKI-1 renal, greater than 100 µM; in the test on NCI-H522 lung it was greater than 100 µM; with OVCAR-3 ovarian it was greater than 10 µM; in the test on OVCAR-4 ovarian, greater than 100 µM. Further, the TGI in the test on SNB-75 CNS was greater than 100 µM; with UACC-257 melanoma, greater than 10 µM.
For `COc1cc2c(cc1OC(=O)CC(C)O)C1C(OC2=O)C(OC(C)=O)C=C2CCN(C)[C@H]21` (stereo partly specified), the TGI was 45.5 µM in the test with A498 renal; greater than 100 µM in the test with A549 NSCLC; greater than 100 µM with CAKI-1 renal; greater than 100 µM in the test with NCI-H522 lung; greater than 100 µM with OVCAR-3 ovarian; greater than 100 µM with OVCAR-4 ovarian. Also, the results for the TGI with SNB-75 CNS and with UACC-257 melanoma were 38.4 µM and greater than 100 µM, respectively.
For the compound `c1ccc2c(C3NCCc4[nH]cnc43)cccc2c1` (stereo unspecified), the TGI in the test with A498 renal, with A549 NSCLC, in the test on CAKI-1 renal, in the test on NCI-H522 lung, with OVCAR-3 ovarian and with OVCAR-4 ovarian was greater than 100 µM each time. For the same compound, the TGI in the test with SNB-75 CNS and with UACC-257 melanoma was greater than 100 µM each time.
